For data set [1] the following is noted: in vivo; cited from earlier work.
Data set [2] is described as follows: Polyacrylamide gel electrophoresis of rat plasma (plasma level studies). Type of data set: in vivo, female Sprague Dawley rats.
A short description of data set [3]: Tissue distribution of radioactivity following IV administration of radioiodinated cholesteryl ethers to female rats. It is filed as in vivo, female Sprague Dawley rats. How it is done: (§1) The labelled compounds ([…] ^125 I) were administered intravenously in a 2% Tween-20-saline vehicle. At various times following administration, the animals were sacrificed, and selected tissue samples were removed. The tissue samples were weighed and placed in cellulose acetate capsules. The radioactivity was then counted (85%) efficiency using a well scintillation counter (Searle 1185). The results from selected tissue samples are shown below in Tables 1 and 2. The tissue distribution of the selected cholesteryl ether is expressed as percent Kg dose per g of tissue after 30 minutes (Table 1) and after 24 hours (Table 2).

How the values of data set [4] were obtained:
Female Sprague Dawley rats were injected with a radio-iodinated arylaliphatic cholesteryl ether analogue (^125 I) solubilized in a suitable transport agent, such as 2% Tween 20-saline. After a predetermined time period, blood samples were drawn from the rats. The plasma was separated from the red blood cells and mixed with a suitable dye (Sudan Black or Sudan Blue). The plasma samples were then subjected to polyacrylamide gel electrophoresis to separate the various fractions. The radioactivity of the various fractions were measured with a gamma counter. […] The data is expressed as a percent of total radioactivity in the gel.
Guinea pigs have a greater concentration of low density lipoproteins in their blood plasma than rats.

Data set [5] is described as follows: Tissue distribution of radioactivity following IV administration to male guinea pigs. Type of data set: in vivo, male Hartley guinea pigs. How it is done:
as §1

This is an account of results in patent publication US4933157A, “Radioiodinated arylaliphatic ether analogues of cholesterol” (The University of Michigan, priority 1988, dated 1990).

Structures are written as SMILES. Read-outs that look alike come from different tables or passages of the source.

Turning to `CC(C)CCC[C@@H](C)[C@H]1CC[C@H]2[C@@H]3C[C@@H](C[131I])C4=C(CC[C@H](O)C4)[C@H]3CC[C@]12C` [NP-59, 6-b-iodomethyl-19-norcholest-5[10]en-3b-ol], in data set [1], the “metabolic loss of iodine and accumulation in the thyroid” value is “subject to metabolic loss of iodine and resulting accumulation of this iodine in the thyroid”; the “uptake into the adrenal glands” value is “extremely slow”.

For `CC(C)CCC[C@@H](C)[C@H]1CC[C@H]2[C@@H]3CC=C4C[C@@H](OCCCCCCCCCCCCc5cccc([125I])c5)CC[C@]4(C)[C@H]3CC[C@]12C` [m-Iodophenyldodecyl, 12-(m-iodophenyl)dodecyl cholesteryl ether], in data set [2] (30 minutes), the “Gel fraction: Albumin” value is 1.1 ± 0.2 % OF TOTAL RADIOACTIVITY IN GEL, the “Gel fraction: Below Alb” value is 0.5 ± 0.1 % OF TOTAL RADIOACTIVITY IN GEL, the “Gel fraction: HDL Band (high density lipoproteins)” value is 45.7 ± 3.2 % OF TOTAL RADIOACTIVITY IN GEL and the “Gel fraction: LDL Band (low density lipoproteins)” value was 31.2 ± 4.0 % OF TOTAL RADIOACTIVITY IN GEL. Moreover, the “Gel fraction: Stacking Gel” value in data set [2] (30 minutes) is on record as 21.6 ± 5.8 % OF TOTAL RADIOACTIVITY IN GEL. Also, in data set [2] (24 hours), the “Gel fraction: Albumin” value is 3.4 ± 0.7 % OF TOTAL RADIOACTIVITY IN GEL, the “Gel fraction: Below Alb” value is 4.9 ± 1.3 % OF TOTAL RADIOACTIVITY IN GEL, the “Gel fraction: HDL Band” value is on record as 66.2 ± 2.6 % OF TOTAL RADIOACTIVITY IN GEL and the “Gel fraction: LDL Band” value is 14.0 ± 1.0 % OF TOTAL RADIOACTIVITY IN GEL. Moreover, in data set [2] (24 hours), the “Gel fraction: Stacking Gel” value is on record as 11.6 ± 1.3 % OF TOTAL RADIOACTIVITY IN GEL. Also, in data set [3] (30 minutes), the “Tissue distribution of radioactivity: Adrenal” value (from here on “Tissue distribution … Adrenal”) came to 1.307 ± 0.177 % KG DOSE/G OF TISSUE, the “Tissue distribution of radioactivity: Blood” value (shortened to “Tissue distribution … Blood”) is given as 1.250 ± 0.067 % KG DOSE/G OF TISSUE, the “Tissue distribution of radioactivity: Liver” value (from here on “Tissue distribution … Liver”) came out at 0.829 ± 0.121 % KG DOSE/G OF TISSUE and the “Tissue distribution of radioactivity: Ovary” value (“Tissue distribution … Ovary” for short) was 0.936 ± 0.136 % KG DOSE/G OF TISSUE. For the same compound, the “Tissue distribution of radioactivity: Thyroid” value (shortened to “Tissue distribution … Thyroid”) in data set [3] (30 minutes) is given as 0.486 ± 0.085 % KG DOSE/G OF TISSUE. In data set [3] (24 hours), the “Tissue distribution … Adrenal” value amounted to 3.063 ± 0.305 % KG DOSE/G OF TISSUE, the “Tissue distribution … Blood” value was 0.085 ± 0.002 % KG DOSE/G OF TISSUE, the “Tissue distribution … Liver” value stood at 1.779 ± 0.247 % KG DOSE/G OF TISSUE and the “Tissue distribution … Ovary” value stood at 4.528 ± 0.816 % KG DOSE/G OF TISSUE. For the same compound, the “Tissue distribution … Thyroid” value in data set [3] (24 hours) is on record as 6.047 ± 0.760 % KG DOSE/G OF TISSUE.

On to `CC(C)CCC[C@@H](C)[C@H]1CC[C@H]2[C@@H]3CC=C4C[C@@H](OCc5cccc([125I])c5)CC[C@]4(C)[C@H]3CC[C@]12C` [m-Iodobenzyl, m-iodobenzyl cholesteryl ether], for which, in data set [2] (30 minutes), the “Gel fraction: Albumin” value is 0.3 ± 0.1 % OF TOTAL RADIOACTIVITY IN GEL, the “Gel fraction: Below Alb” value is reported as 0.0 ± 0.0 % OF TOTAL RADIOACTIVITY IN GEL, the “Gel fraction: HDL Band (high density lipoproteins)” value is recorded as 53.3 ± 2.2 % OF TOTAL RADIOACTIVITY IN GEL and the “Gel fraction: LDL Band (low density lipoproteins)” value is recorded as 41.0 ± 3.5 % OF TOTAL RADIOACTIVITY IN GEL. For the same compound, the “Gel fraction: Stacking Gel” value in data set [2] (30 minutes) is 5.4 ± 2.5 % OF TOTAL RADIOACTIVITY IN GEL. For the same compound, in data set [2] (24 hours), the “Gel fraction: Albumin” value is on record as 1.1 ± 0.2 % OF TOTAL RADIOACTIVITY IN GEL, the “Gel fraction: Below Alb” value is 0.5 ± 0.1 % OF TOTAL RADIOACTIVITY IN GEL, the “Gel fraction: HDL Band” value is recorded as 45.7 ± 3.2 % OF TOTAL RADIOACTIVITY IN GEL and the “Gel fraction: Stacking Gel” value was 21.6 ± 5.8 % OF TOTAL RADIOACTIVITY IN GEL. In addition, in data set [3] (30 minutes), the “Tissue distribution … Adrenal” value is on record as 1.347 ± 0.289 % KG DOSE/G OF TISSUE, the “Tissue distribution … Blood” value is reported as 0.985 ± 0.127 % KG DOSE/G OF TISSUE, the “Tissue distribution … Liver” value is recorded as 1.414 ± 0.176 % KG DOSE/G OF TISSUE and the “Tissue distribution … Ovary” value turned out to be 0.635 ± 0.036 % KG DOSE/G OF TISSUE. In addition, the “Tissue distribution … Thyroid” value in data set [3] (30 minutes) was 0.133 ± 0.018 % KG DOSE/G OF TISSUE. Besides, in data set [3] (24 hours), the “Tissue distribution … Adrenal” value is 3.755 ± 0.362 % KG DOSE/G OF TISSUE, the “Tissue distribution … Blood” value was 0.070 ± 0.006 % KG DOSE/G OF TISSUE, the “Tissue distribution … Liver” value came out at 2.607 ± 0.072 % KG DOSE/G OF TISSUE and the “Tissue distribution … Ovary” value is given as 1.924 ± 0.301 % KG DOSE/G OF TISSUE. Besides, the “Tissue distribution … Thyroid” value in data set [3] (24 hours) was determined as 1.307 ± 0.150 % KG DOSE/G OF TISSUE. Further, the “Gel fraction: LDL Band” value in data set [4] (guinea pig plasma, IV, 24 hr) is listed as 72.2 ± 2.0 % OF TOTAL RADIOACTIVITY IN GEL. Moreover, the “dose associated with the low density lipoproteins” value in data set [4] (guinea pig, in vivo) is reported as “greater than 70 % of the dose”. In data set [5] (30 min), the “Tissue distribution … Adrenal” value came out at 0.360 ± 0.019 % KG DOSE/G OF TISSUE, the “Tissue distribution … Blood” value came out at 0.799 ± 0.041 % KG DOSE/G OF TISSUE, the “Tissue distribution … Liver” value was determined as 0.643 ± 0.044 % KG DOSE/G OF TISSUE and the “Tissue distribution of radioactivity: Testes” value is given as 0.025 ± 0.002 % KG DOSE/G OF TISSUE. For the same compound, the “Tissue distribution … Thyroid” value in data set [5] (30 min) stood at 0.039 ± 0.002 % KG DOSE/G OF TISSUE. Moreover, in data set [5] (24 hr), the “Tissue distribution … Adrenal” value amounted to 7.861 ± 0.656 % KG DOSE/G OF TISSUE, the “Tissue distribution … Blood” value was 0.158 ± 0.020 % KG DOSE/G OF TISSUE, the “Tissue distribution … Liver” value turned out to be 2.023 ± 0.147 % KG DOSE/G OF TISSUE and the “Tissue distribution of radioactivity: Testes” value was found to be 0.043 ± 0.010 % KG DOSE/G OF TISSUE. The “Tissue distribution … Thyroid” value in data set [5] (24 hr) came out at 1.546 ± 0.279 % KG DOSE/G OF TISSUE.
